We go through five compounds from ChEMBL document CHEMBL1201862, “PubChem BioAssay data set” (2004).

Experiment [1] addresses T1, Replicative DNA helicase DnaB (Mycobacterium tuberculosis, UniProt P9WMR3).
T1 sequence (P9WMR3 whole entry): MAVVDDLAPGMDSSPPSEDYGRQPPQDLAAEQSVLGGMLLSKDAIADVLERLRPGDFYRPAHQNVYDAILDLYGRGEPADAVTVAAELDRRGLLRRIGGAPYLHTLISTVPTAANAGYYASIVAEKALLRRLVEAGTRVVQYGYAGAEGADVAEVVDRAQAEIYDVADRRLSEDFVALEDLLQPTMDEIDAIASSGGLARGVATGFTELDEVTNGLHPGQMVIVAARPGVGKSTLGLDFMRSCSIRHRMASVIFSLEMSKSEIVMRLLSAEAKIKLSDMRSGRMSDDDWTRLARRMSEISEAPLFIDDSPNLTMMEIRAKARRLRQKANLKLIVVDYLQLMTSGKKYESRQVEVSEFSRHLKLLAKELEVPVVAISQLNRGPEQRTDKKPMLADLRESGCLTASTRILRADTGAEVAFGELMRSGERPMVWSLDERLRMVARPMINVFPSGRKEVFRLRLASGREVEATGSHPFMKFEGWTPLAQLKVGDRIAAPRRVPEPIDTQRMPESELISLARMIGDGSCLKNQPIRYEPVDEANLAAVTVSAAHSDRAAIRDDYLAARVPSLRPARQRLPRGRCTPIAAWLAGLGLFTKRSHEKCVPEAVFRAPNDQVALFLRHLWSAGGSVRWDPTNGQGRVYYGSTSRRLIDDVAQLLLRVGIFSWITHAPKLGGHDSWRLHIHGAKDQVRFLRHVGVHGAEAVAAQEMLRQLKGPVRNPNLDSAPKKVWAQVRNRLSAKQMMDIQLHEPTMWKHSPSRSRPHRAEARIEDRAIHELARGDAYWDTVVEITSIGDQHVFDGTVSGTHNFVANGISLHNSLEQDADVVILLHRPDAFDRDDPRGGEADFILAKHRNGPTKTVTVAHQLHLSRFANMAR
The experiment in a line: DnaB intein splicing inhibitors, dose response, biochemical, cell-free fluorescence (AID 449749). The experiment is classed as functional.

Experiment [2] is described as follows: inhibitors of SNCA 5'UTR-driven reporter translation, confirmation, H4 neuroglioma cells, luminescence (AID 1988). Format: functional, cell-based.
The nature of experiment [3]: NIH-3T3 fibroblast cytotoxicity, dose response, cytotoxicity control, cell-based, fluorescence, Alamar Blue, secondary assay (AID 2327).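 Also: NIH-3T3 mouse fibroblasts cultured with fluconazole at 8 µg/mL.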 The experiment is classed as functional.
The target of a further experiment is T2, Protein RecA (Mycobacterium tuberculosis, UniProt P9WHJ3).
T2 sequence (P9WHJ3 whole entry): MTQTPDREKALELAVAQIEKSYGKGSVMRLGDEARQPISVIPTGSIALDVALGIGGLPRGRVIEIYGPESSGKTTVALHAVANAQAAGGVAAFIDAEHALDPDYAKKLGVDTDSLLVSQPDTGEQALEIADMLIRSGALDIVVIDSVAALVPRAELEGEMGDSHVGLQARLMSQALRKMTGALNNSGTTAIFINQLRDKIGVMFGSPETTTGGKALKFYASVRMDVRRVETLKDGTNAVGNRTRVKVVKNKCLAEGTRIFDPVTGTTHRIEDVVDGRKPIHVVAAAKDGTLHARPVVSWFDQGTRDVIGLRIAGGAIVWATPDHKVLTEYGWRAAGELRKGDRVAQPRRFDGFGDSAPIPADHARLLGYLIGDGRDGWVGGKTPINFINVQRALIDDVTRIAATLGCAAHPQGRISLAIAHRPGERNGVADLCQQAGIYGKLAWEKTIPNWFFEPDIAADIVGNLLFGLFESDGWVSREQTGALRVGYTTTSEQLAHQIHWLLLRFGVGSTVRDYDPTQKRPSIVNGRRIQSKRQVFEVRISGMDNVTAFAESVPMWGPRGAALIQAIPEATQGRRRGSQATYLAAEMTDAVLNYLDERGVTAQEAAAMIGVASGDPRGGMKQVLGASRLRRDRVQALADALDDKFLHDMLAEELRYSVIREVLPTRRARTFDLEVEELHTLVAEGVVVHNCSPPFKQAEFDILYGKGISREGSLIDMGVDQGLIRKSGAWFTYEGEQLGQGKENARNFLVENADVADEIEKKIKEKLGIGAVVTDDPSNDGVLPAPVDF
Kind of experiment: Fluorescence Cell-Free Homogeneous Dose Retest to Identify Inhibitors of RecA-Intein Splicing Activity. [Related pubchem assays (depositor defined):AID2097, AID2223, AID489010, AID492950]. Format: functional.

The nature of experiment [4]: cytotoxicity toward DRD oncogenic fibroblasts, dose response, cell-based, non-viral oncogenic, luminescence (AID 1934). The experiment is classed as functional. As to conditions: Homo sapiens.
Experiment [5] concerns the target T3, Microphthalmia-associated transcription factor (Homo sapiens, UniProt O75030).
T3 sequence (O75030 whole entry): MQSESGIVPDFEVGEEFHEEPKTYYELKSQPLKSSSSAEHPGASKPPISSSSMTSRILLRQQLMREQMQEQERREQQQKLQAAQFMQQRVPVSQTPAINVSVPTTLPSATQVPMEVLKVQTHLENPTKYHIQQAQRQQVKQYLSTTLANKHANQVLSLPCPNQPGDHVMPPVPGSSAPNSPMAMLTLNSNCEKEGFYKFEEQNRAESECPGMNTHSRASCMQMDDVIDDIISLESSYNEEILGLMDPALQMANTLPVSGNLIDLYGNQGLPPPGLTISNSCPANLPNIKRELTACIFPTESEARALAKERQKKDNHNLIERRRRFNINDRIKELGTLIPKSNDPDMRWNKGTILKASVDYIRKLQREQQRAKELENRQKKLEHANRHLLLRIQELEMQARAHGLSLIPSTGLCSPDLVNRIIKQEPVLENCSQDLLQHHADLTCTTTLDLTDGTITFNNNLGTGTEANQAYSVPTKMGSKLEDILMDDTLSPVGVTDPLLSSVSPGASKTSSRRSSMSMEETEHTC
The experiment in a line: TRPM1 promoter luciferase signal decrease, dose response, MITF inhibitor project, cell-based, SK-MEL-5, cherry-picked, set 3 (AID 493073).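 Also: SK-MEL-5 melanoma cells with luciferase driven by the MITF target TRPM1 promoter.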 Format: functional.

Experiment [6] in a line: inhibitors of firefly luciferase expression or activity, dose response, H4 neuroglioma cells, luminescence (AID 1990). Format: functional, cell-based.
Experiment [7] is described as follows: C. albicans growth with fluconazole, confirmation, fluorescence, retest (AID 2467). The experiment is classed as functional, cell-based.
In experiment [8] the test system is BJ. The experiment in a line: cytotoxicity toward BJ-TERT fibroblasts, dose response, cell-based, RAS-independent, luminescence (AID 1933). The experiment is classed as functional. The following applies: Homo sapiens.
The test system of experiment [9] is BJ. The experiment in a line: cells. As to conditions: Homo sapiens. The experiment is classed as functional, cell-based.
The nature of experiment [10]: Luminescence Cell-Based Dose Response HTS to Identify Inhibitors of 5'UTR Stem-Loop Driven Prion Protein mRNA Translation in H4 Neuroglioblastoma Cells. [Related pubchem assays: 1827 (Project Summary), 1813 (Primary HTS)]. Format: functional.
The next experiment concerns the target T4, Hexokinase HKDC1 (Homo sapiens, UniProt Q2TB90).
T4 sequence (Q2TB90 whole entry): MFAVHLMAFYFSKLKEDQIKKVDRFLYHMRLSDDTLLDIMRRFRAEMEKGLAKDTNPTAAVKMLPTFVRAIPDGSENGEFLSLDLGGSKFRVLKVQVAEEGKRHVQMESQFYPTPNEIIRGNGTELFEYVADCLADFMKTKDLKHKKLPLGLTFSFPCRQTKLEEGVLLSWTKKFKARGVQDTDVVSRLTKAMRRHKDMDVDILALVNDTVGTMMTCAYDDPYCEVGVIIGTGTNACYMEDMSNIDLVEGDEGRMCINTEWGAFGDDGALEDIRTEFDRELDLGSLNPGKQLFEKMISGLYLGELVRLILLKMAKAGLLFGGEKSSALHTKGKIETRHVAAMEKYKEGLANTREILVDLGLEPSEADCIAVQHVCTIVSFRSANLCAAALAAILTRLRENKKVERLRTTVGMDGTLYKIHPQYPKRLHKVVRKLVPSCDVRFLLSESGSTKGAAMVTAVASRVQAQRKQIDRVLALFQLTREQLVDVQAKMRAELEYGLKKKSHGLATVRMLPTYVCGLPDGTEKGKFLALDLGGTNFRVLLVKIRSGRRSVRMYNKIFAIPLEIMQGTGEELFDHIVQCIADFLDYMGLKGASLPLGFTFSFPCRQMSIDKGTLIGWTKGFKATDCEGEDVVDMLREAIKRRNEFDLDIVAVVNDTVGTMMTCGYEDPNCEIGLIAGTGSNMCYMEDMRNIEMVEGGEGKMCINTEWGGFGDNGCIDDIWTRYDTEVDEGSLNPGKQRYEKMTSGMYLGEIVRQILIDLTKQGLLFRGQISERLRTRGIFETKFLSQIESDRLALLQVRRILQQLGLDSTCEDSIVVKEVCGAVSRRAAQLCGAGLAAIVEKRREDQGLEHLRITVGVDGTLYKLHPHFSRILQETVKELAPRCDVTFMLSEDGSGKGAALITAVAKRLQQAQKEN
Kind of experiment: HKDC1 hexokinase inhibitors, dose response, biochemical, W721R variant (AID 504729). The experiment is classed as functional.

Experiment [11] relates to BJ. The experiment in a line: cytotoxicity toward BJ-TERT-LT-ST fibroblasts, dose response, cell-based, RAS-independent, luminescence (AID 1935).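 Also: BJ fibroblasts immortalized with TERT plus LT and ST oncogenes.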 The experiment is classed as functional. As to conditions: Homo sapiens.
The next experiment addresses Beta-galactosidase (Escherichia coli, UniProt Q8VNN2). Format: functional.
Experiment [12] concerns the target T5, Kappa-type opioid receptor (Homo sapiens, UniProt P41145). The experiment is classed as functional.
Experiment [13] addresses T5, Kappa-type opioid receptor. The experiment is classed as functional. The source holds these as a separate data set.
Experiment [14] has as its target T6, Lysosomal acid glucosylceramidase (Homo sapiens, UniProt P04062).
T6 sequence (P04062 whole entry): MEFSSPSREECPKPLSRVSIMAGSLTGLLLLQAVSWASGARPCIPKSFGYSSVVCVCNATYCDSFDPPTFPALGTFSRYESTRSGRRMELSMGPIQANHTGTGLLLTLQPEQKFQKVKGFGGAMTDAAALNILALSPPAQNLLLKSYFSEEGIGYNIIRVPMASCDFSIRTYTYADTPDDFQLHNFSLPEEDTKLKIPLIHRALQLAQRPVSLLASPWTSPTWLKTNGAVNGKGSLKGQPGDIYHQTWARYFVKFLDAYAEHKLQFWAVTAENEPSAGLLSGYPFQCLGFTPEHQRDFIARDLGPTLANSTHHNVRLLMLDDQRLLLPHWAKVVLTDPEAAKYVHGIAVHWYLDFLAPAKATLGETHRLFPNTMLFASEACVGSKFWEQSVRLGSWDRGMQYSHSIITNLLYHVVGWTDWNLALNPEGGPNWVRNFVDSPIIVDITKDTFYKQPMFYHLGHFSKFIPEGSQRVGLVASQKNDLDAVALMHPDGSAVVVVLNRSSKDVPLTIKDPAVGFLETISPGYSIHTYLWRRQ
The experiment in a line: Dose response cell-based high throughput screening assay to identify enhancers of beta-glucosidase activity. [Related pubchem assays: 784 ]. The experiment is classed as functional.

For another experiment, the target named is Cytochrome P450 3A4 (Homo sapiens, UniProt P08684). The following applies: Potency.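 Also: confirmatory qHTS run detecting inhibitors and substrates of CYP3A4.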
Another experiment deals with P388/ADR. Kind of experiment: cells. Format: functional. As to conditions: Mus musculus.
In the next experiment the test system is P388. Kind of experiment: cells. Format: functional. The following applies: Mus musculus.
In another experiment the test system is SN12K1. The experiment in a line: cells. The experiment is classed as functional. As to conditions: Homo sapiens.

Activity calls are given as the source filed them. A value given as a limit tells only on which side of the number the result lay.

By AC50 is commonly meant the midpoint of the concentration-response curve, whichever way the signal moves. What is called EC50 is the concentration giving half of the maximal effect. The IC50 is the midpoint of a concentration-inhibition curve. Usually GI50 stands for the concentration that inhibits growth by half.

T5 sequence (P41145 whole entry): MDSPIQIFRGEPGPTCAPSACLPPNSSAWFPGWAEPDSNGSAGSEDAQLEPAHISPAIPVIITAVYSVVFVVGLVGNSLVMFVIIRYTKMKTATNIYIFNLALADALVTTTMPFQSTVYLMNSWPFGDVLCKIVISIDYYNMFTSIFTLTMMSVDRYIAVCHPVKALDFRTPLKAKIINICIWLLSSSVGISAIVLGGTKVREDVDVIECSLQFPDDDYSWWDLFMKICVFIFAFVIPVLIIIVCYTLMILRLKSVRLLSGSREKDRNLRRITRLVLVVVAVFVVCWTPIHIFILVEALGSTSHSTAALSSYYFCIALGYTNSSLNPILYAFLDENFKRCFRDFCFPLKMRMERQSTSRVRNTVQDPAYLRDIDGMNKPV
Chain of Beta-galactosidase (Q8VNN2 whole entry): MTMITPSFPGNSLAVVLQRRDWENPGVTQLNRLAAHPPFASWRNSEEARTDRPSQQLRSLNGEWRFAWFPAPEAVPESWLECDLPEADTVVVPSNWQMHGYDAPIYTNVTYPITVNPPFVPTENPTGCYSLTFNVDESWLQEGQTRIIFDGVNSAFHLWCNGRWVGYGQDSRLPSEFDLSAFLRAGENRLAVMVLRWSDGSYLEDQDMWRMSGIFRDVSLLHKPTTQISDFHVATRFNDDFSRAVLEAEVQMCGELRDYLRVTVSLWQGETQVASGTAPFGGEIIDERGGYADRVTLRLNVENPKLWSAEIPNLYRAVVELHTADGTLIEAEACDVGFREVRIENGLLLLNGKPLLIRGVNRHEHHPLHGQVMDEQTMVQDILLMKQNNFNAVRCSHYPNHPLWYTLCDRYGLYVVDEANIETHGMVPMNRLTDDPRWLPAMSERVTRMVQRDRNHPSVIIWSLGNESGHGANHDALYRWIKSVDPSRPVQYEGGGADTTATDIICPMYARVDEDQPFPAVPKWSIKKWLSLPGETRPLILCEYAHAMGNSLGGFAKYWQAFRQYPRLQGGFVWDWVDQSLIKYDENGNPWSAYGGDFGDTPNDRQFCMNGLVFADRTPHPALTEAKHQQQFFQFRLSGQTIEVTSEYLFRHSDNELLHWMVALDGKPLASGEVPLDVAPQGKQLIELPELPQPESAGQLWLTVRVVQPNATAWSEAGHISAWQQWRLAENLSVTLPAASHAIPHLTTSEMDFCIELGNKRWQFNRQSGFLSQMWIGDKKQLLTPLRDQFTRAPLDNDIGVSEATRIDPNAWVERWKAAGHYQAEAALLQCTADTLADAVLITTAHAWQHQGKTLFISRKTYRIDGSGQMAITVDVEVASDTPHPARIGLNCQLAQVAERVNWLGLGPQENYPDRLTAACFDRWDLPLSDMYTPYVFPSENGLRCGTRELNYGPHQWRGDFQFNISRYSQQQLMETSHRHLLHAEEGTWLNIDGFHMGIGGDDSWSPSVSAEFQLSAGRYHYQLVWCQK
Chain of Cytochrome P450 3A4 (P08684 whole entry): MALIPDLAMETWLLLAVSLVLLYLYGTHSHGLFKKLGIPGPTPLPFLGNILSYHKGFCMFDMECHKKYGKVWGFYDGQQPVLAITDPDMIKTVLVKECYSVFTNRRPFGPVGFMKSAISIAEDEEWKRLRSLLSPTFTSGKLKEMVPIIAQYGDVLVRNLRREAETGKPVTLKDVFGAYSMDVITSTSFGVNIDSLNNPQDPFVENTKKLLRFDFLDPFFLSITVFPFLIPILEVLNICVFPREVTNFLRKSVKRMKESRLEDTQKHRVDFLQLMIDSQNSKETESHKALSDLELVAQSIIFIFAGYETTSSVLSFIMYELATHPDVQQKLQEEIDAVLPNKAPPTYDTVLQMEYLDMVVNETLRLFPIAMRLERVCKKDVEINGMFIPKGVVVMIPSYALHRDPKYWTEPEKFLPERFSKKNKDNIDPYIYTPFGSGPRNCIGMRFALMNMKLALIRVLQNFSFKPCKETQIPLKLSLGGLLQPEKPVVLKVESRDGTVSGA

As to `CCOc1ccc(-n2c(C)cc(C(=O)CCl)c2C)cc1`, the AC50 in experiment [1] is 8.96 µM (active); in [5], 4.59 µM (active). Further, the EC50 in experiment [2] was > 120 µM (not active); in experiment [3], 4.21 µM (inconclusive); at Protein RecA, 11.7 µM (active); in experiment [4] it was 9.56 µM (active); in [6], > 120 µM (not active); in experiment [7], > 38 µM (not active). In addition, the EC50 in the experiment with BJ [8] is 4.29 µM (active); in the experiment with BJ [9] it was 4.84 µM (active); in experiment [10], 15 µM (active); in the experiment on BJ [11], 9.67 µM (inconclusive). Also, the IC50 on Hexokinase HKDC1 was 47.7 µM (inactive).
Take `Oc1ccc2c3c1O[C@H]1c4oc5ccccc5c4C[C@@]4(O)[C@@H](C2)N(CC2CC2)CC[C@]314`: on Beta-galactosidase, the EC50 is > 31.5 µM (inactive). Also, the values for the IC50 in experiment [12] and in experiment [13] were 0.699 µM (active) and < 0.5 µM, respectively.
Regarding `Cc1ccccc1CS(=O)(=O)Cc1ccc(C(=O)NCc2ccco2)o1`, the EC50 in [14] is listed as > 50 µM (not active).
For the compound `COC1=CC(=O)C=C(OC)C1=O` [2,6-DIMETHOXYQUINONE], the half-maximal activity concentration (AC50) on Cytochrome P450 3A4 was 25.1 µM (inconclusive). Besides, the values for the 50% growth inhibitory concentration (GI50) with P388/ADR, in the experiment on P388 and in the experiment with SN12K1 were 0.457 µM (active), 0.401 µM (active) and 7.38 µM (inactive), respectively. Besides, on Hexokinase HKDC1, the IC50 was 2.49 µM (active).
Consider `O=C(CCNS(=O)(=O)c1cccc2nsnc12)NC1CCN(Cc2ccccc2)CC1`, for which the EC50 in [14] is given as > 50 µM (not active).
